“And” between values parts separate entries of the source, which are not always exact repeats. Equal values may be shown once. “Also recorded” adds a separate entry of the source.
Assays:
mouth of participants = experiment: threshold of irritation from camphor, oral sip and swish of camphor solution; type: in vivo, human; set-up: key to irritation felt at 200 ppm / irritation felt at 300 ppm / irritation felt at 400 ppm / irritation felt at 1000 ppm / irritation felt at 2000 ppm / irritation felt at 4000 ppm / irritation felt at 6000 ppm: Y: the participant felt irritation at the indicated concentration; N: no irritation was felt
Description: A further study was conducted to determine the threshold at which camphor itself would cause sensory irritation.
Each test used two milliliters (2 ml) of a camphor solution. The camphor was dissolved in ethanol and further diluted in water. Participants received sequentially increasing concentration of camphor. Nine participants received samples including food grade racemic camphor, with concentrations of 200, 300, 400, […] 1000, 2000, 4000, 6000 ppm (corresponding to about […] per sample, respectively).
Participants wore nose clips during evaluation. Each participant sipped the sample, swished it in the mouth for 10 seconds, then spat it out. Each participant then indicated whether irritation was perceived. Between evaluations of each sample, participants rinsed with water and waited for one minute.
The left-most column indicates the participant number of each individual participant.

[1] = system: mouth of subjects using oral tobacco; experiment: snus pouches with camphor, perceived burning in the mouth, 2AFC design; type: in vivo, human
Description: A further study was conducted to determine if camphor affected perceived burning in the mouth of subjects using oral tobacco. Participants were given two snus pouch samples to use simultaneously, one in each side of the mouth. One sample was a control pouch with no camphor added and the other contained various concentrations of camphor ([…], based on tobacco weight, respectively). The hand-made test samples were constructed using unflavored tobacco (12% oven volatiles) to prevent any possible interference of the flavor system with the objective of the study. In preparing the pouches, the camphor was dissolved in 95% ethanol, with the control pouches receiving the ethanol only. Ten (10) microliters of one of the solutions was applied to each sample pouch (5 microliters per side). […] Responses were recorded on paper by the experimenter. […] Following each evaluation, participants were asked to give details regarding where the burning was felt and to provide any open-ended comments regarding their experience, which were recorded on paper by the experimenter. Participants repeated the sensory evaluation procedures an additional six (6) times, with a maximum of two (2) pairs being evaluated each day.

[2] = system: tongues of human volunteers; experiment: pre-treatment with camphor on sensory irritation from nicotine, tongues of human volunteers; type: in vivo; settings: camphor 25, 50 or 100 ppm, 20 microliters on strip for 30 seconds before 0.1-0.3% nicotine
Excerpt: FIGS. 1 and 2 show the results of a study on the effect of pre-treatment with camphor on sensory irritation from nicotine. Camphor was applied to tongues of human volunteers prior to application of a nicotine solution. Randomized sides of tongues were selected for application of 20 microliters of 0 ppm, 25 ppm, 50 ppm, or 100 ppm of camphor on a strip (thus, about […], respectively) for 30 seconds. Then, the subjects sipped, rinsed, then spit 0.1%, 0.2%, or 0.3% of a nicotine solution for a 5 second application. Participants were then asked which side of the tongue has the strongest burning sensation. Responses were collected both immediately (within 5 seconds) (FIG. 1) and after 30 seconds (FIG. 2). Controls received no camphor, and a baseline was established at zero camphor.

nerve fibers = settings: isolated mouse trachea model; cited from earlier work
TRPV1 receptors = settings: increasing their responsiveness; J. Neurophysiol., 91: 1482-1491, 2004; cited from earlier work
TRPA1 receptors = TRPA1 receptors (Homo sapiens, UniProt O75762); settings: cited from earlier work
Chain of TRPA1 receptors (O75762 whole entry): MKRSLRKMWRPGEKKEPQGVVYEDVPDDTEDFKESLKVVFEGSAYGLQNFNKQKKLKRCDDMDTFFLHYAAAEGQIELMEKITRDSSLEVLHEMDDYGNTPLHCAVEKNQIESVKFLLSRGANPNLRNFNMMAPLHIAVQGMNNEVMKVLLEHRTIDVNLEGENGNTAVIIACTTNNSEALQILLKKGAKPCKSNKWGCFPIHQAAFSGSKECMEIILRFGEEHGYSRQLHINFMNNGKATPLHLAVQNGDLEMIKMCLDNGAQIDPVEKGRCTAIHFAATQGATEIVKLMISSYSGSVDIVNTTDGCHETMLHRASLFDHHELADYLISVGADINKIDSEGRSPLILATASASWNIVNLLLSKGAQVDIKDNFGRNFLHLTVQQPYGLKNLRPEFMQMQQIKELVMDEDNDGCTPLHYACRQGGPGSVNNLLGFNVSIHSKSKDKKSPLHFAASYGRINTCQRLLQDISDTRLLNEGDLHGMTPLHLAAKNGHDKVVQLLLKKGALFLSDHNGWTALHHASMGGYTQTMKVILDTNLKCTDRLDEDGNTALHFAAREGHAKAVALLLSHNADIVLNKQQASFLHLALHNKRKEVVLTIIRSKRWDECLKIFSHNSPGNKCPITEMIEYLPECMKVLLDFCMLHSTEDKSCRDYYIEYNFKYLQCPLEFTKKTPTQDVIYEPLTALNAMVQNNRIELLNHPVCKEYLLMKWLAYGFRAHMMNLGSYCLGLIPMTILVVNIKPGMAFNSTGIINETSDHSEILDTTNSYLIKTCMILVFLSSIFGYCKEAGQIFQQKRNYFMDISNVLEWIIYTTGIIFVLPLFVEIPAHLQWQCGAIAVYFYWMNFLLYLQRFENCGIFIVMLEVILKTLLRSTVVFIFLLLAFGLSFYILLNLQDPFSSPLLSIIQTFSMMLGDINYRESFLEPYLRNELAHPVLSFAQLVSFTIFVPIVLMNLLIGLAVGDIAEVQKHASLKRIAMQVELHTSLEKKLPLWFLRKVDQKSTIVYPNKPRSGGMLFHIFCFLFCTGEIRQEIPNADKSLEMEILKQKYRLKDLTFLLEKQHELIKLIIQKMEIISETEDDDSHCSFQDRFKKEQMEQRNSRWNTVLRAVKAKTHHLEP

| Compound | irritation felt at 200 ppm (mouth of participants; 200 ppm camphor, 2 ml solution, swished 10 seconds, one line per participant) | irritation felt at 300 ppm (mouth of participants; 300 ppm camphor, 2 ml solution, swished 10 seconds, one line per participant) | irritation felt at 400 ppm (mouth of participants; 400 ppm camphor, 2 ml solution, swished 10 seconds, one line per participant) | irritation felt at 1000 ppm (mouth of participants; 1000 ppm camphor, 2 ml solution, swished 10 seconds, one line per participant) | irritation felt at 2000 ppm (mouth of participants; 2000 ppm camphor, 2 ml solution, swished 10 seconds, one line per participant) | irritation felt at 4000 ppm (mouth of participants; 4000 ppm camphor, 2 ml solution, swished 10 seconds, one line per participant) | irritation felt at 6000 ppm (mouth of participants; 6000 ppm camphor, 2 ml solution, swished 10 seconds, one line per participant) | concentration at which a few participants were sensitive (mouth of participants; a few participants, sensitive only at higher concentrations) | concentration at which most participants perceived tingling (mouth of participants; most participants) | mean threshold for producing irritation (mouth of participants; n=9) | Notes (sensation described by participant) (mouth of participants; one line per participant, concentrations in ppm) | time at which the effect was strongest ([1]; 12 nanogram (50 ppm) camphor pouch, asked at 2, 5 and 10 minutes) | reduction of oral burning from snus pouch ([1]; 12 nanogram (corresponding to 50 ppm) camphor per pouch versus control pouch) | perceived burning from nicotine, 30 seconds after initial exposure ([2]; response after 30 seconds) | perceived burning from nicotine, immediately ([2]; response immediately (within 5 seconds)) | inhibition of activation of nerve fibers induced by the nicotinic agonist nicotine (nerve fibers) | sensitization of TRPV1 receptors (TRPV1 receptors) | sensitization of TRPA1 receptors (TRPA1 receptors) |
| --- | --- | --- | --- | --- | --- | --- | --- | --- | --- | --- | --- | --- | --- | --- | --- | --- | --- | --- |
| CC12CCC(CC1=O)C2(C)C (racemic) [camphor] | Y (3×) and N (6×) | Y (3×) and N (6×) | Y (4×) and N (4×) | N and Y (2×) | Y | Y | Y | 1000-2000 ppm | 200-300 ppm | 655 ppm | Tingling at 300, tingling no burning; also recorded: No Burning, slight tingling on edges; also recorded: Some burning and stinging at 200, | 10 min | most effective in reducing oral burning | significantly reduced perceived burning from nicotine | significantly reduced perceived burning from nicotine | effectively inhibit activation of nerve fibers |  |  |
| CN1CCCC1c1cccnc1 (stereo not drawn) [nicotine] |  |  |  |  |  |  |  |  |  |  |  |  |  |  |  |  | sensitize TRPV1 receptors | as well as TRPA1 receptors |

Source: patent US20210378281A1, “INHIBITION OF SENSORY IRRITATION DURING CONSUMPTION OF NON-SMOKEABLE TOBACCO PRODUCTS” (priority 2010, published 2021)
